From patent US9232785B2, “Method for reducing sunburn damage in plants” (BASF SE, priority 2009, dated 2016)

Legend:
[1] = test system: sunburn injury on winter barley; assay: Preventive action on winter barley against sunburn injury, field trial (Example 3); format: in vivo; conditions: Germany, applied at BBCH 53, evaluated 22 days after application, 0 = as untreated control, 100 = no sunburn symptoms, UV filter 2 L/ha (500 g ai/ha), Actives A & B 0.8 & 0.8 L/ha (240 & 297 g ai/ha)
Experimental: As active substance a mixture of active substances was used called “Actives A & B”, which was prepared by mixing Active A and Active B. Active A was a fungicidal suspension concentrate comprising 6 wt % epoxiconazol, 20.8 wt % boscalid, 11.2-12.6 wt % fatty alcohol alkoxylate, C8-alkyl glucoside, and phenolsulfonic acid-formaldehyde-polycondensate sodium salt (commercially available pesticide formulation from BASF SE as Champion®). Active B a fungicidal suspoemulsion comprising 20.6 wt % fenpropimorph, 11 wt % pyraclostrobin, 4.1 wt % epoxiconazol, 20.5 wt % solvent naphtha, 11 wt % fatty alcohol ethoxylate and 4.8 wt % phenolsulfonic acid-formaldehyde-polycondensate sodium salt (commercially available pesticide formulation from BASF SE as Diamant®). UV Filter A and UV filter B were prepared as described in examples 1 and 2.
The biological trial was conducted under field conditions in Germany. […] The level of sunburn injury was evaluated 22 days after application (% estimation of destroyed leaf area).
The sunburn injury assessments were converted into efficacies. […] The expected efficacies of active compound mixtures were determined using Colby's formula [R. S. Colby, “Calculating synergistic and antagonistic responses of herbicide combinations”, Weeds 15, 20-22 (1967)] and compared with the observed efficacies.

[2] = test system: sunburn injury on barley cultivar Finita; assay: Preventive action on winter barley against sunburn injury, field trial, two timings (Example 5); format: in vivo; conditions: applied at BBCH 53, Actives A & B 0.8 l/ha, UV Filter 2.0 l/ha, Surround 10 kg/ha, % destroyed leaf area
Experimental: The biological trial was conducted under field conditions in Germany. The barley cultivar […] was planted and grown under standard conditions with adequate supply of water and nutrients. At BBCH 53 0.8 l/ha of Actives A & B and 2.0 l/ha UV Filter A or B were applied. For comparison, the Surround® (commercially available from Engelhard Corp., wettable powder comprising 95 wt % kaolin) was applied at a rate of 10 kg/ha. The level of sunburn injury was evaluated 15 and 22 days after application (% estimation of destroyed leaf area).

Row | Structure (SMILES) | Efficacy [1] | % sunburn injury 15 days after application [2] [%] | % sunburn injury 22 days after application [2] [%]
1 | COCCOCCOCCOCCOCCOCCOCCOC(=O)C(C#N)=C(c1ccccc1)c1ccccc1 [UV Filter A, 2-Cyano-3,3-diphenyl-acrylsäure-[Pluriol A350E]-ester] | 4 | 38 | 96
2 | COCCOCCOCCOCCOCCOCCOCCOC(=O)CCc1cc(-n2nc3ccccc3n2)c(O)c(C(C)(C)C)c1 [UV Filter B, 3-(3-Benzotriazol-2-yl-5-tert-butyl-4-hydroxyphenyl)-propiosäure-[Pluriol A350E]-ester] | 3 | 36 | 97
